Data set [1] relates to MDR1. Briefly: Apparent permeability in pig LLC-PK1 cells transfected with MDR1. Format: ADME, cell-based, Sus scrofa.
Data set [2] can be described thus: Fraction unbound in human plasma at 2.5 uM by equilibrium dialysis. Format: ADME, cell-free.
Data set [3] addresses IKr (KCNH2) (Homo sapiens, UniProt Q12809). Description: Inhibition of IKr (unknown origin) at 30 uM.
Data set [4] has as its system Rattus norvegicus. Description: Elevation of O-protein in rat brain at 3 mg/kg, po measured after 8 hrs relative to control. Format: functional.
For data set [5], the target named is T1, Protein O-GlcNAcase (Homo sapiens, UniProt O60502).
T1 sequence (O60502 whole entry): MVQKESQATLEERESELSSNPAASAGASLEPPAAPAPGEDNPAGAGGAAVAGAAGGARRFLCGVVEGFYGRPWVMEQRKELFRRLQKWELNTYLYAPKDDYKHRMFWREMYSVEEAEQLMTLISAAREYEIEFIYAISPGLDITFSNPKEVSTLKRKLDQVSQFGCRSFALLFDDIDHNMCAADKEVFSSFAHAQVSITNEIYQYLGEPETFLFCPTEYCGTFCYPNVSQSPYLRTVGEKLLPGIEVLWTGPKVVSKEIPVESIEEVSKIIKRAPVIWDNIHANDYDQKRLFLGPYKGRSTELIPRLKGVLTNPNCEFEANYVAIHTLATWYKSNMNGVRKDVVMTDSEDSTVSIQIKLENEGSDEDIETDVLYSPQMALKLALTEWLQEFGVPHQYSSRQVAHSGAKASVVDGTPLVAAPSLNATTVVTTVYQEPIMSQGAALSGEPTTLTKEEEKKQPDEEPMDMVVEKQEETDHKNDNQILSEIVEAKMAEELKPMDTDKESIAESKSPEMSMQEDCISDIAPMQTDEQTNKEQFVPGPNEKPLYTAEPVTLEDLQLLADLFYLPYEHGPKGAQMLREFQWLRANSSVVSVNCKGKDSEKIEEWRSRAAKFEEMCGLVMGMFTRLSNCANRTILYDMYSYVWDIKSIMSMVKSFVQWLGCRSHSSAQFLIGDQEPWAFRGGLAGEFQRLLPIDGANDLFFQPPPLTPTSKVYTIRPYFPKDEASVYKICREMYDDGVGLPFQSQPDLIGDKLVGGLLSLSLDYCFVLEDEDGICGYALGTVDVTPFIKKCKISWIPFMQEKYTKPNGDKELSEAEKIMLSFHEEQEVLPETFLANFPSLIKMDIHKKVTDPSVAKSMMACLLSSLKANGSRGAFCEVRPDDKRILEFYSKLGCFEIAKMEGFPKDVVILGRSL
Briefly: Inhibition of recombinant human OGA.

Data set [6] is described as follows: Clearance in rhesus monkey at 1 mg/kg, iv. The data set is classed as ADME, organism-based, Macaca mulatta. The note with it: in vivo.
A short description of data set [7]: AUC (0 to 24 hrs) in rat assessed as change in histomorphology at 1000 mg/kg, po administered for 7 days and measured on day 8. Format: ADME, organism-based. More on the design: time < 24 hr, dose 1000 mg/kg, route oral. Particulars: in vivo.
Data set [8] addresses Nav1.5 (Homo sapiens, UniProt Q14524). Briefly: Inhibition of Nav1.5 (unknown origin) at 30 uM.
Data set [9] in a line: AUCN in rhesus monkey at 3 mg/kg, po. Format: ADME, organism-based, Macaca mulatta. The note with it: in vivo.
A short description of data set [10]: Drug uptake in rat brain at 3 mg/kg, po measured after 8 hrs. Format: ADME, organism-based. The note with it: in vivo.
Data set [11] has as its system Rattus norvegicus. Description: Elevation of O-protein in rat brain at 10 mg/kg, po measured after 24 hrs. The data set is classed as functional.
Data set [12] can be described thus: Toxicity in rat assessed as change in serum chemistry at 1000 mg/kg, po administered for 7 days and measured on day 8. Particulars: in vivo, 168 h. The data set is classed as organism-based.
Data set [13] in a line: Protein binding in monkey plasma. Format: ADME, cell-free, Macaca mulatta. Particulars: rhesus monkey, read-out: PPB.
Data set [14] can be described thus: Volume of distribution at steady state in rhesus monkey at 1 mg/kg, iv or 3 mg/kg, po. The data set is classed as ADME, organism-based, Macaca mulatta. Particulars: in vivo, read-out: Vdss.
Data set [15] in a line: Cmax in telemetered dog at 380 mg/kg, po. The data set is classed as ADME, organism-based, Canis lupus familiaris. More on the design: dose 380 mg/kg, route oral. The note with it: in vivo.
Data set [16] is described as follows: Ratio of drug level in dog blood to plasma. The note with it: whole blood. Format: ADME, cell-free, Canis lupus familiaris.
Data set [17] can be described thus: Stability in dog hepatocytes assessed as parent compound remaining at 10 uM incubated for 120 mins. Format: ADME, cell-based, Canis lupus familiaris, Hepatocyte. Particulars: read-out: Stability.
A short description of data set [18]: Volume of distribution at steady state in Wistar Han rat at 2 mg/kg, iv or 10 mg/kg, po. Particulars: in vivo, read-out: Vdss. The data set is classed as ADME, organism-based.
The target of data set [19] is T2, Cytochrome P450 2B6 (Homo sapiens, UniProt P20813).
T2 sequence (P20813 whole entry): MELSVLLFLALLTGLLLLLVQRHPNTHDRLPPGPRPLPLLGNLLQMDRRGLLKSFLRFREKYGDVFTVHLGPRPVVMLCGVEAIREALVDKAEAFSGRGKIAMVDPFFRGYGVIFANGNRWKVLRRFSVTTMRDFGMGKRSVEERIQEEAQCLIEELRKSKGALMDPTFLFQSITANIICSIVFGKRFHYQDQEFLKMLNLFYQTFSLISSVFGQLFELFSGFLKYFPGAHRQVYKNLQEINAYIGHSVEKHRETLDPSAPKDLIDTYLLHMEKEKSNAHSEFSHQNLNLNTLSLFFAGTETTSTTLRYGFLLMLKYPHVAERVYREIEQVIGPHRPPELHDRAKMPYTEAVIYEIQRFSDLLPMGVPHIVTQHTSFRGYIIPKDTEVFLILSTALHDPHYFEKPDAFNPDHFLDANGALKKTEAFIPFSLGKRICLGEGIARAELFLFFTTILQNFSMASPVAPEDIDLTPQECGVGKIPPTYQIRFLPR
Briefly: Induction of CYP2B6 in human hepatocytes upto 20 uM. The data set is classed as ADME, cell-based.

Data set [20] is described as follows: Half life in Beagle dog at 1 mg/kg, iv. Particulars: in vivo. Format: ADME, organism-based, Canis lupus familiaris.
Data set [21] can be described thus: AUCN in Beagle dog at 3 mg/kg, po. Format: ADME, organism-based, Canis lupus familiaris. Particulars: in vivo.
A short description of data set [22]: Clearance in Beagle dog at 1 mg/kg, iv. Format: ADME, organism-based, Canis lupus familiaris. Particulars: in vivo.
The target in data set [23] is T3, Beta-hexosaminidase subunit beta (Homo sapiens, UniProt P07686).
T3 sequence (P07686 whole entry): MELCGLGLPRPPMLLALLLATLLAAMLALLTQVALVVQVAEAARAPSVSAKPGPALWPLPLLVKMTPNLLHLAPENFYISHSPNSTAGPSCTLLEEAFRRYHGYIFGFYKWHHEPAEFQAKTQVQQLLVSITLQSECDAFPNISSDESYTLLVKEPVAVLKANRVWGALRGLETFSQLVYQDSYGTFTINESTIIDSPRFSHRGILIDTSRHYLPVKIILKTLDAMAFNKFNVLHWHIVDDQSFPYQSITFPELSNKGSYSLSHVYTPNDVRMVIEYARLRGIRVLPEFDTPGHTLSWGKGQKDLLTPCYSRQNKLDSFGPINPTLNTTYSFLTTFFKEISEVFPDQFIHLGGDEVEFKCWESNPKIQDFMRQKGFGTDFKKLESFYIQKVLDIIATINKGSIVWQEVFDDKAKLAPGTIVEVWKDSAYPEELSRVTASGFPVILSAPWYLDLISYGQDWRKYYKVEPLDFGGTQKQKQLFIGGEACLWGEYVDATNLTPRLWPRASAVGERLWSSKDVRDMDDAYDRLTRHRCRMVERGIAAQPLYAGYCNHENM
Description: Inhibition of human beta hexosaminidase assessed as inhibitory constant using 4-methylumbelliferyl N-acetyl-beta-D-glucosaminide dihydrate as substrate measured every 60 sec for 45 mins by fluorescence spectrophotometry.

From ChEMBL document CHEMBL4354805, “Discovery of MK-8719, a Potent O-GlcNAcase Inhibitor as a Potential Treatment for Tauopathies” (J Med Chem, 2019) come the findings set out here.

A value given as a limit tells only on which side of the number the result lay.

Chain of IKr (KCNH2) (Q12809 whole entry): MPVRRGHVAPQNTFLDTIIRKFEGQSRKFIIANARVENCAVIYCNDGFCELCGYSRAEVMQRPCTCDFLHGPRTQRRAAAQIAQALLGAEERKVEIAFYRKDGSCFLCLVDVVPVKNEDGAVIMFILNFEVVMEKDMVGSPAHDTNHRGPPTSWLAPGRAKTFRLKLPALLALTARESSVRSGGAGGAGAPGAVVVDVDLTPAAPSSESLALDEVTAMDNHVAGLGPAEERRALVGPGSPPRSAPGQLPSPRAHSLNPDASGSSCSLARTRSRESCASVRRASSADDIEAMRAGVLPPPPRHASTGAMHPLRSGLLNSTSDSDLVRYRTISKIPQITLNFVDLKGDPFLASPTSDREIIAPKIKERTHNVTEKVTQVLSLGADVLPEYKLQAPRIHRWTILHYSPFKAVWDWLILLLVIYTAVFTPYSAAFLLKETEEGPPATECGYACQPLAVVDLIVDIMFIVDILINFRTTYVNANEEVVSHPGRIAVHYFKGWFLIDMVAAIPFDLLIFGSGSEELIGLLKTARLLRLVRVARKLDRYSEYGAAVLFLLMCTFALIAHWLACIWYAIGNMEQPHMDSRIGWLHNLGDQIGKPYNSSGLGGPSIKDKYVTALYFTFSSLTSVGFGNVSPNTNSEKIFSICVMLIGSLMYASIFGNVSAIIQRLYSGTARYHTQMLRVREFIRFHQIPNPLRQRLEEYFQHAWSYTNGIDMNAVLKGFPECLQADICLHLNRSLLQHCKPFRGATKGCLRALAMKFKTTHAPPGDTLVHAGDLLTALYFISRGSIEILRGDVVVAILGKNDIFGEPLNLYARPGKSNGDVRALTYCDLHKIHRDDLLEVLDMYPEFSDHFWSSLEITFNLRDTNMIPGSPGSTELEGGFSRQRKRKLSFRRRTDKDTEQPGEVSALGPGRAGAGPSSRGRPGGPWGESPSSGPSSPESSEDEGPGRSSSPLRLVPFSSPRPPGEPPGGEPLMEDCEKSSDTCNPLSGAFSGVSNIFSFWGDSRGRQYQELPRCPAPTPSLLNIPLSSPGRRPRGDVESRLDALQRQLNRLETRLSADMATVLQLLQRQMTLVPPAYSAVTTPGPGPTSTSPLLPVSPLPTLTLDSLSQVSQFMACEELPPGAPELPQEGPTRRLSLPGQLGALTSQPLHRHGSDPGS
Chain of Nav1.5 (Q14524 whole entry): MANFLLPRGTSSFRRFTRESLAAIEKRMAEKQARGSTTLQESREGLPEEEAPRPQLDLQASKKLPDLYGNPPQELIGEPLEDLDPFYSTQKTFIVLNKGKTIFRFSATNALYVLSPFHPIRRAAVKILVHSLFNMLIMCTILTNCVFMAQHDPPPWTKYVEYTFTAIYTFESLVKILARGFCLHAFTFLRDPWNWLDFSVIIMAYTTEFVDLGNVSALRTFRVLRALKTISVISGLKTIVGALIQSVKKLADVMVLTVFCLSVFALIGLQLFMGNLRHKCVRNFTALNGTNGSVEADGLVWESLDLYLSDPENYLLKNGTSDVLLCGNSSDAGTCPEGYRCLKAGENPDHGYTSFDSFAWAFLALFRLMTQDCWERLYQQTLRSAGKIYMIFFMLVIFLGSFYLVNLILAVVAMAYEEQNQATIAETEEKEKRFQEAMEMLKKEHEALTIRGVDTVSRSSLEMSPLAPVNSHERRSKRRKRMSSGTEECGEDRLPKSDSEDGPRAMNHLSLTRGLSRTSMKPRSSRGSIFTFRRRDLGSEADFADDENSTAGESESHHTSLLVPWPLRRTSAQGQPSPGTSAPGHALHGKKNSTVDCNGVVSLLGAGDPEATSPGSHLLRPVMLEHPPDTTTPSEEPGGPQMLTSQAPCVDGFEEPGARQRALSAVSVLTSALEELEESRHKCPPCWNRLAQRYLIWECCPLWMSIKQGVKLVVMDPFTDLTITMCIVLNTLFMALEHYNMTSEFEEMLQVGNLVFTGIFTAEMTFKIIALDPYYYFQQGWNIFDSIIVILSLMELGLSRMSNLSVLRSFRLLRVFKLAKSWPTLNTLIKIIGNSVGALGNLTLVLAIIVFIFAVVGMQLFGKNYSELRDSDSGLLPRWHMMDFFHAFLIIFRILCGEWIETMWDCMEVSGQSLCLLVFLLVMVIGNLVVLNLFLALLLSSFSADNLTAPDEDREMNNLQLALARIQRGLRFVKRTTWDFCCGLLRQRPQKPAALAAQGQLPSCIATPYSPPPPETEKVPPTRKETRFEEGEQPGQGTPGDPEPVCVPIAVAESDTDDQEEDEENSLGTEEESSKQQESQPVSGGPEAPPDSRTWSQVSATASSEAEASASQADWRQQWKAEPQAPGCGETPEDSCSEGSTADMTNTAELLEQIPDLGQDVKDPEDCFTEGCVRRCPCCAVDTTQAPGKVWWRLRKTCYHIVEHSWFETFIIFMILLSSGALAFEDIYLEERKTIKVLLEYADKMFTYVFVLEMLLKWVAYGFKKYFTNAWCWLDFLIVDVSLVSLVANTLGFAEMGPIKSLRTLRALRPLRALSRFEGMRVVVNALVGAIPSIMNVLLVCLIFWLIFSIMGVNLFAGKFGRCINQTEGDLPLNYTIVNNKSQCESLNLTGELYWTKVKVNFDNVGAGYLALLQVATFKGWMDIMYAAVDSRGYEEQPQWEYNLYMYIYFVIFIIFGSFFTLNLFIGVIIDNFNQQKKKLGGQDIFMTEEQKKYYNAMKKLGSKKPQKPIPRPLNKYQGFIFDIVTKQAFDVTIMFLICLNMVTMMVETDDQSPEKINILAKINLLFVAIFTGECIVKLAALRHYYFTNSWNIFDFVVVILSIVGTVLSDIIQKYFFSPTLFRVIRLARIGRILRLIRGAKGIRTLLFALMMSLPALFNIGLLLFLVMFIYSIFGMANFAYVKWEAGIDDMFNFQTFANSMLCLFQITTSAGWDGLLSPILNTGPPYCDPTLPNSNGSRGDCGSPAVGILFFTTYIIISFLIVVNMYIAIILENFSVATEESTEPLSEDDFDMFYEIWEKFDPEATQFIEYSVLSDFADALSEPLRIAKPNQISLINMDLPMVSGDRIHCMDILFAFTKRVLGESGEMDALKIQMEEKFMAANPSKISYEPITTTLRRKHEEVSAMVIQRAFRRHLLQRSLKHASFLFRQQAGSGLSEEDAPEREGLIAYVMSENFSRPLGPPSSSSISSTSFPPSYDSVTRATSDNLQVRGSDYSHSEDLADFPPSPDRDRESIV

One may read the Papp as a coefficient for how fast a substance crosses the barrier. For orientation: inhibition means the relative decrease from the control value, in per cent. As a reminder, the Ki is a dissociation constant, usually derived from enzyme kinetics or from competition with a known ligand. For orientation: clearance means the volume of plasma or blood freed of the substance per unit of time. A word on the AUC: it is concentration integrated over time. For orientation: Cmax means the peak of the concentration-time curve. As a reminder, the half-life is the time needed for the level to fall by half in the phase considered. Turning to `CCNC1=N[C@@H]2[C@@H](O)[C@H](O)[C@@H](C(F)F)O[C@@H]2S1`, in data set [1], the Papp worked out at 6.4 ×10⁻⁶ cm/s. Moreover, the fraction unbound at 2.5 µM in data set [2] was 0.99. Also, the inhibition at 30 µM in [3] and in [8] was < 50% each time. Besides, the “fold change (FC)” value in data set [4] was 2.06; in data set [11], 2.57. Further, the Ki was 7.9 nM in data set [5] and > 10000 nM in data set [23]. Besides, the results for the clearance in data set [6] and in [22] were 26.7 mL/min/kg and 11.7 mL/min/kg, respectively. Also, in [7], the area under the curve (AUC) at 24 h was 1340 µM·h. The AUC/dose in [9] is 0.61 µM·kg·h/mg; in data set [21], 14.2 µM·kg·h/mg. In data set [10], the Drug uptake stood at 0.219 nmol/g. Besides, the Activity result is listed as “Non-Toxic” in data set [12] and “Not Active” in data set [19]. In addition, in [13], the fraction unbound was > 0.95. For the same molecule, the Vd in [14] amounted to 3.1 L/kg; in [18], 3.7 L/kg. Moreover, in data set [15], the Cmax was found to be 660 µM. The blood plasma ratio in data set [16] lay in the range of 0.9 to 1.1. Besides, the remaining at 2 h, 10 µM in data set [17] was determined as 91%. The molecule further gave a half-life in [20] of 2.3 h.
